Measurements from patent US20250179017A1 (GUANGDONG NEWOPP BIOPHARMACEUTICALS CO., LTD., priority 2022, published 2025).

Columns and labels:
human EP4 (EP4R) = biological target: T1, human EP4 (EP4R) (Homo sapiens, UniProt P35408); experiment: EP4 antagonist assay (HEK-293 CNG membrane potential cAMP assay / 293T SEAP reporter assay, PGE2-stimulated); type: cell-based; conditions: EP4 antagonist activity; concentration for inhibition of signal compared to DMSO
T1 construct: Cayman Chemical (Human EP4 Reporter Assay Kit)
T1 sequence (P35408 whole entry): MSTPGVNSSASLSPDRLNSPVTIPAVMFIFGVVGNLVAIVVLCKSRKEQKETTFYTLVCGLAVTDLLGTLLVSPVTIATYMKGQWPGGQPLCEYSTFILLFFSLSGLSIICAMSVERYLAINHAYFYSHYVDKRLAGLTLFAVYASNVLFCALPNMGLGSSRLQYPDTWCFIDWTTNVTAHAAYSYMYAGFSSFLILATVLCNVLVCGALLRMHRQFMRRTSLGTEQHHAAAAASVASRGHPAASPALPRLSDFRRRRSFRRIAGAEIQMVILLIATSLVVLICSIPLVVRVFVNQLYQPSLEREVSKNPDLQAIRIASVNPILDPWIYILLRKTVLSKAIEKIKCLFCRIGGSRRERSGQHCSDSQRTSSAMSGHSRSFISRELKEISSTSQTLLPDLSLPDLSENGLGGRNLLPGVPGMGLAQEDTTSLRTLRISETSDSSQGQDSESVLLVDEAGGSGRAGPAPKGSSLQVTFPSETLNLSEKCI
From the text: 1. The HEK-293 CNG (Cyclic Nucleotide Gated) cell line expressing a modified CNG channel that leads to cell membrane depolarization in response to elevated intracellular cAMP levels, which can be measured using a fluorescent membrane potential dye, was engineered to express human EP2 (PTGER2) or EP4 (EP4R). The resulting cell line ACTOne™ PTGER2 or ACTOne™ EP4R as well as the fluorescent membrane potential dye were purchased from eEnzyme (Gaithersburg, MD, US) and used in this assay. Briefly, cells were plated at 1.2×10^4 cells/well in 20 μL DMEM supplemented with 2% Fetal Bovine Serum (FBS, VWR International), 1x Penicillin/Streptomycin (GenClone), 0.2 μg/mL puromycin (InvivoGen) and 50 μg/mL G418 (InvivoGen) on a 384 well plate (Greiner). The next day, cells were dye-loaded with 20 μL/well of 1x Dye-loading solution (eENZYME) following the manufacturer's instruction. After 2 hours of incubation at room temperature (RT) in the dark, a pre-read was made to obtain the background signals using CLARIOstar plate reader (BMG LABTECH, Germany) with the following filter settings: excitation=530/20 nm, emission=590/20 nm. Next, a serial dilution of compound (plus a DMSO control) were added to the plate (5 μL/well) and the reaction was incubated at RT for 15 min before adding 5 μL of PGE2 to every well for a final concentration of 5 nM. All wells were duplicated. The plate was then further incubated at RT for 30 min prior to a final read with the same machine settings. Background-subtracted signals were used to calculate IC50 values.
2. Human EP2 and EP4 Reporter Assay Kits were purchased from Cayman Chemical (Ann Arbor, MI, USA). The assay was performed following the provided User Manual. Briefly, a reverse transfection was performed by seeding 6.0×10^4 of 293T cells (ATCC) to each well of the provided Strip Plate coated with a proprietary transfection complex containing DNA constructs for expressing human EP2 or EP4 and a cAMP response element regulated secreted alkaline phosphatase (SEAP) reporter, in 200 μL DMEM supplemented with 2% FBS and incubated for 20-24 hours at 37° C. with 5% CO2. After the incubation, the culture medium was carefully removed, and the cells were replenished with 150 μL pre-warmed serum-free medium. PGE2 and test compounds were prepared together at 4x the desired final concentration, and 50 μL was added to each assigned well with the final concentration of 13 nM and 2 nM PGE2 for EP2 and EP4 assay, respectively. After 6-8 hours of incubation, 10 μL media from each well was transferred to corresponding well of a new plate, which was then sealed and incubated at 65° C. for 30 min. The plate was then cooled down to RT and 50 μL SEAP substrate was added to each well. Luminescence signal was measured using a CLARIOstar plate reader.
The IC50 value was determined as the concentration for […] inhibition of signal compared to DMSO (A: IC50≤100 nM; B: IC50 between 100 nM and 1,000 nM; C: IC50≥1,000 nM).

human EP2 (PTGER2) = biological target: T2, human EP2 (PTGER2) (Homo sapiens, UniProt P43116); experiment: EP2 antagonist assay (HEK-293 CNG membrane potential cAMP assay / 293T SEAP reporter assay, PGE2-stimulated); type: cell-based; conditions: EP2 antagonist activity; concentration for 50% inhibition of signal compared to DMSO
T2 construct: Cayman Chemical (Human EP2 Reporter Assay Kit)
T2 sequence (P43116 whole entry): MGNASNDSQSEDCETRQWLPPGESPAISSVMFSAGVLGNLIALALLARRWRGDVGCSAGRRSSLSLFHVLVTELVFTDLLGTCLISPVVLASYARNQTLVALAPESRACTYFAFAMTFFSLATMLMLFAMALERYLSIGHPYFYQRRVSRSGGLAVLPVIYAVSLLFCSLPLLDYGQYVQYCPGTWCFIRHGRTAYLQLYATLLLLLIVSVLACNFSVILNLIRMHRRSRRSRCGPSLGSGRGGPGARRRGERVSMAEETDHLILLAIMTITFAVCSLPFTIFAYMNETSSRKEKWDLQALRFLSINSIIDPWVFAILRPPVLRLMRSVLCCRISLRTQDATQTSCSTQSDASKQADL
Summary of the method: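 Two formats. In a CRE-SEAP reporter assay, reverse-transfected 293T cells received compound with PGE2 (13 nM final) for 6-8 h, then luminescence was read. In the ACTOne CNG format, HEK-293 cells were preincubated with compound for 15 min at RT, stimulated with 5 nM PGE2 for 30 min, and read by membrane-potential dye fluorescence. IC50 was taken versus DMSO.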

IC50 (human EP4 (EP4R)) [nM] | IC50 (human EP2 (PTGER2)) [nM] | Structure (SMILES)
≤ 100 | < 100 | O=C(O)c1ccc(CNC(=O)c2cc(-c3cccnc3)cc3ccn(Cc4ccc(C(F)(F)F)cc4)c23)cc1 [Example 78, 4-((5-(pyridin-3-yl)-1-(4-(trifluoromethyl)benzyl)-1H-indole-7-carboxamido)methyl)benzoic acid]
≤ 100 | < 100 | O=C(O)c1ccc(CNC(=O)c2cc(-c3ccncc3)cc3ccn(Cc4ccc(C(F)(F)F)cc4)c23)cc1 [Example 80, 4-((5-(pyridin-4-yl)-1-(4-(trifluoromethyl)benzyl)-1H-indole-7-carboxamido)methyl)benzoic acid]
≤ 100 | 100 to 1000 | CC(C)(O)c1cccc(-c2cc(C(=O)NCc3ccc(C(=O)O)cc3)c3c(ccn3Cc3ccc(C(F)(F)F)cc3)c2)c1 [Example 85, 4-((5-(3-(2-hydroxypropan-2-yl)phenyl)-1-(4-(trifluoromethyl)benzyl)-1H-indole-7-carboxamido)methyl)benzoic acid]
≤ 100 | < 100 | O=C(O)c1ccc(CNC(=O)c2cc(-c3ccccc3F)cc3ccn(Cc4ccc(C(F)(F)F)cc4)c23)cc1 [Example 87, 4-((5-(2-fluorophenyl)-1-(4-(trifluoromethyl)benzyl)-1H-indole-7-carboxamido)methyl)benzoic acid]
≤ 100 | < 100 | O=C(O)c1ccc(CNC(=O)c2cc(-c3ccc(F)cc3)cc3cnn(Cc4ccc(C(F)(F)F)cc4)c23)cc1 [Example 96, 4-((5-(4-fluorophenyl)-1-(4-(trifluoromethyl)benzyl)-1H-indazole-7-carboxamido)methyl)benzoic acid]
≤ 100 | < 100 | O=C(O)c1ccc(CNC(=O)c2cc(-c3ccccc3)cc3cnn(Cc4ccc(C(F)(F)F)cc4)c23)cc1 [Example 97, 4-((5-phenyl-1-(4-(trifluoromethyl)benzyl)-1H-indazole-7-carboxamido)methyl)benzoic acid]
≤ 100 | < 100 | C[C@H](NC(=O)c1cc(-c2ccccc2)cc2cnn(Cc3ccc(C(F)(F)F)cc3)c12)c1ccc(C(=O)O)cc1 [Example 100, (S)-4-(1-(5-phenyl-1-(4-(trifluoromethyl)benzyl)-1H-indazole-7-carboxamido)ethyl)benzoic acid]
≤ 100 | < 100 | C[C@H](NC(=O)c1cc(-c2cc(F)cc(F)c2)cc2cnn(Cc3ccc(C(F)(F)F)cc3)c12)c1ccc(C(=O)O)cc1 [Example 101, (S)-4-(1-(5-(3,5-difluorophenyl)-1-(4-(trifluoromethyl)benzyl)-1H-indazole-7-carboxamido)ethyl)benzoic acid]
≤ 100 | < 100 | O=C(O)c1ccc(CNC(=O)c2cc(-c3cc(F)cc(F)c3)cc3ccn(Cc4cccc(Cl)c4)c23)cc1 [Example 106, 4-((1-(3-chlorobenzyl)-5-(3,5-difluorophenyl)-1H-indole-7-carboxamido)methyl)benzoic acid]
≤ 100 | < 100 | O=C(O)c1ccc(CNC(=O)c2cc(-c3ccc(F)cc3)cc3ccn(Cc4cccc(Cl)c4)c23)cc1 [Example 107, 4-((1-(3-chlorobenzyl)-5-(4-fluorophenyl)-1H-indole-7-carboxamido)methyl)benzoic acid]
≤ 100 | < 100 | N#Cc1cccc(-c2cc(C(=O)NCc3ccc(C(=O)O)cc3)c3c(Sc4ccc(C(F)(F)F)cc4)c[nH]c3c2)c1 [Example 117, 4-((6-(3-cyanophenyl)-3-((4-(trifluoromethyl)phenyl)thio)-1H-indole-4-carboxamido)methyl)benzoic acid]
≤ 100 | < 100 | O=C(O)c1ccc(CNC(=O)c2cc(-c3ccc(F)cc3)cc3ccn(Cc4cccc(C(F)(F)F)c4)c23)cc1 [Example 124, 4-((5-(4-fluorophenyl)-1-(3-(trifluoromethyl)benzyl)-1H-indole-7-carboxamido)methyl)benzoic acid]
≤ 100 | < 100 | C[C@H](NC(=O)c1cc(-c2ccccc2)cc2ccn(Cc3cccc(C(F)(F)F)c3)c12)c1ccc(C(=O)O)cc1 [Example 129, (S)-4-(1-(5-phenyl-1-(3-(trifluoromethyl)benzyl)-1H-indole-7-carboxamido)ethyl)benzoic acid]
≤ 100 | < 100 | C[C@H](NC(=O)c1cc(-c2ccc(F)cc2)cc2cnn(Cc3cccc(C(F)(F)F)c3)c12)c1ccc(C(=O)O)cc1 [Example 134, (S)-4-(1-(5-(4-fluorophenyl)-1-(3-(trifluoromethyl)benzyl)-1H-indazole-7-carboxamido)ethyl)benzoic acid]
≤ 100 | < 100 | C[C@H](NC(=O)c1cc(-c2ccccc2)cc2cnn(Cc3cccc(C(F)(F)F)c3)c12)c1ccc(C(=O)O)cc1 [Example 135, (S)-4-(1-(5-phenyl-1-(3-(trifluoromethyl)benzyl)-1H-indazole-7-carboxamido)ethyl)benzoic acid]
≤ 100 | < 100 | C[C@H](NC(=O)c1cc(-c2cc(F)cc(F)c2)cc2cnn(Cc3cccc(C(F)(F)F)c3)c12)c1ccc(C(=O)O)cc1 [Example 136, (S)-4-(1-(5-(3,5-difluorophenyl)-1-(3-(trifluoromethyl)benzyl)-1H-indazole-7-carboxamido)ethyl)benzoic acid]
≤ 100 | < 100 | O=C(O)c1ccc(CNC(=O)c2cc(-c3ccccc3)cc3cnn(Cc4cccc(C(F)(F)F)c4)c23)cc1 [Example 137, 4-((5-phenyl-1-(3-(trifluoromethyl)benzyl)-1H-indazole-7-carboxamido)methyl)benzoic acid]
≤ 100 | < 100 | O=C(O)c1ccc(CNC(=O)c2cc(-c3ccccc3)cc3ccn(Cc4ccc5ccccc5n4)c23)cc1 [Example 141, 4-((5-phenyl-1-(quinolin-2-ylmethyl)-1H-indole-7-carboxamido)methyl)benzoic acid]
≤ 100 | < 100 | O=C(O)c1ccc(CNC(=O)c2cc(-c3ccccc3)cc3ccn(Cc4ccc(-c5ccccc5)cc4)c23)cc1 [Example 147, 4-((1-([1,1′-biphenyl]-4-ylmethyl)-5-phenyl-1H-indole-7-carboxamido)methyl)benzoic acid]
≤ 100 | < 100 | O=C(O)c1ccc(CNC(=O)c2cc(-c3cc(F)cc(F)c3)cc3ccn(Cc4ccc(-c5ccccc5)cc4)c23)cc1 [Example 149, 4-((1-([1,1′-biphenyl]-4-ylmethyl)-5-(3,5-difluorophenyl)-1H-indole-7-carboxamido)methyl)benzoic acid]
≤ 100 | < 100 | C[C@H](NC(=O)c1cc(-c2ccccc2)cc2ccn(Cc3ccc(-c4ccccc4)cc3)c12)c1ccc(C(=O)O)cc1 [Example 150, (S)-4-(1-(1-([1,1′-biphenyl]-4-ylmethyl)-5-phenyl-1H-indole-7-carboxamido)ethyl)benzoic acid]
≤ 100 | < 100 | C[C@H](NC(=O)c1cc(-c2ccc(F)cc2)cc2ccn(Cc3ccc(-c4ccccc4)cc3)c12)c1ccc(C(=O)O)cc1 [Example 151, (S)-4-(1-(1-([1,1′-biphenyl]-4-ylmethyl)-5-(4-fluorophenyl)-1H-indole-7-carboxamido)ethyl)benzoic acid]
≤ 100 | < 100 | C[C@H](NC(=O)c1cc(-c2cc(F)cc(F)c2)cc2ccn(Cc3ccc(-c4ccccc4)cc3)c12)c1ccc(C(=O)O)cc1 [Example 152, (S)-4-(1-(1-([1,1′-biphenyl]-4-ylmethyl)-5-(3,5-difluorophenyl)-1H-indole-7-carboxamido)ethyl)benzoic acid]
